Source: patent US5399697A, “N,N',N'-trisubstituted-5-bisaminomethylene-1,3-dioxane-4,6-dione inhibitors of acyl-CoA:cholesterol-acyl transferase” (American Home Products Corporation, priority 1993, dated 1995)
Like-named read-outs stand apart in the source and are kept apart here.

Assays:
[1] = tested on: acyl-coenzyme A: cholesterol acyltransferase; experiment: Inhibition of ACAT / intracellular cholesterol esterification in vitro (procedure of Ross et al.); format: cell-based; details: for IC50: read-out: IC50
cholesterol absorption = experiment: 14C-cholesterol absorption in normal rats (oral gavage); format: in vivo; details: Rattus norvegicus; for ED50: normal fed rats
Protocol: Representative compounds were further tested in vivo to establish the percent inhibition of cholesterol absorption. In this study, normal rats were dosed (oral gavage) with ^14 C-cholesterol plus the test compound. Blood samples taken at six hours and/or intermittently up to twenty-four hours were analyzed and the percent inhibition of cholesterol absorption was calculated.

plasma cholesterol = experiment: Plasma cholesterol in cholesterol-cholic acid fed rats; format: in vivo; details: Rattus norvegicus, oral gavage; for ED50: fifty percent reduction of plasma cholesterol
Protocol: In addition, representative compounds were studied in vivo in cholesterol-cholic acid fed rats to determine the percent decrease of cholesterol in their plasma. This study involves rats which are, prior to testing, trained for one week to eat over a four hour time period each day. Upon initiation of the experiment, the rats diet is supplemented with 1.0 percent cholesterol and 0.25 percent cholic acid. The rats are dosed with the test compound by oral gavage just prior to adjust following the four hour feeding period. This is repeated for four days. On the fifth day, the rats are sacrificed and the total plasma cholesterol content is determined. The percent decrease in elevated plasma cholesterol levels is calculated in comparison with […].

[2] = tested on: low density lipoprotein oxidation; experiment: Antioxidant properties, low density lipoprotein oxidation studies (Parthasarathy et al.); format: biochemical; details: result in words
Text: (§1) The use of antioxidants in the treatment of atherosclerosis is also known to be of therapeutic value.

lipoperoxide = experiment: Antioxidant properties, lipoperoxide study of Yagi; format: biochemical; details: result in words
Text: as §1

[3] = normal rats, read-out: % Inhibition of Absorption
[4] = 96 h, four days, read-out: % Decrease in Plasma Cholesterol

Structure (SMILES)	IC50 [1] [nM]	ED50 (cholesterol absorption) [mg/kg]	ED50 (plasma cholesterol) [mg/kg]	% Inhibition ([1]; 25 μM) [%]	change in vivo at 40 mg/kg (plasma cholesterol; [4]) [%]	further results
CCCCCCCN(Cc1ccc(C(C)(C)C)cc1)C(Nc1ccc(OC)cc1OC)=C1C(=O)OC(C)(C)OC1=O [Compound 2]	900	44	99			% Inhibition ([1]; 50 μM): 85%; change in vivo at 200 mg/kg (cholesterol absorption; [3]): -88%
CCCCCC(C)N(Cc1ccc(C(C)(C)C)cc1)C(Nc1ccc(OC)cc1OC)=C1C(=O)OC(C)(C)OC1=O (stereo not drawn) [Compound 4, 5-[[(2,4-Dimethoxophenyl)amino][[[4-(1,1-dimethylethyl)phenyl]methyl](1-methylhexyl)amino]-methylene]-2,2-dimethyl-1,3-dioxane-4,6-dione]	260	10	64	99		change in vivo at 200 mg/kg (cholesterol absorption; [3]): -93%; change in vivo at 100 mg/kg (plasma cholesterol; [4]): -98%
CCCCCCCN(Cc1ccc(C(C)(C)C)cc1)C(Nc1ccc(N(C)C)cc1)=C1C(=O)OC(C)(C)OC1=O [Compound 5, 5-[[[4-(Dimethylamino)phenyl]amino][[[4-(1,1-dimethylethyl)phenyl]methyl]heptylamino]methylene]-2,2-dimethyl-1,3-dioxane-4,6-dione]	1100			99		change in vivo at 200 mg/kg (cholesterol absorption; [3]): -91%; change in vivo at 100 mg/kg (plasma cholesterol; [4]): -35%
CCCCCC(C)N(Cc1ccc(CC(C)(C)C)cc1)C(Nc1ccc(OC)cc1OC)=C1C(=O)OC(C)(C)OC1=O (stereo not drawn) [Compound 7, 5-[[(2,4-Dimethoxyphenyl)amino][[[4-(2,2-dimethylpropyl)phenyl]methyl](1-methylhexyl)amino]methylene]-2,2-dimethyl-1,3-dioxane-4,6-dione]	830	3	6	99		change in vivo at 100 mg/kg (plasma cholesterol; 96 h, heading: % Decrease in Plasma Cholesterol, four days): -100%
CCCCCC(C)N(Cc1ccc(C(C)(C)C)cc1)C(Nc1ccc(N(C)C)cc1)=C1C(=O)OC(C)(C)OC1=O (stereo not drawn) [Compound 21, 5-[[[4-(Dimethylamino)phenyl]amino][[[4-(1,1-dimethylethyl)phenyl]methyl](1-methylhexyl)-amino]methylene]-2,2-dimethyl-1,3-dioxane-4,6-dione]	250			98		change in vivo at 75 mg/kg (cholesterol absorption; normal rats, 75 mg/kg, read-out: % Inhibition of Absorption): -83%; change in vivo at 100 mg/kg (plasma cholesterol; [4]): -78%
CCCCCC(C)N(Cc1ccc(C(C)(C)C)cc1)C(Nc1ccc(OCCCC)cc1)=C1C(=O)OC(C)(C)OC1=O (stereo not drawn) [Compound 27, 5-[[(4-Butoxyphenyl)amino][[[4-(1,1-dimethylethyl)phenyl]methyl](1-methylhexyl)amino]-methylene]-2,2-dimethyl-1,3-dioxane-4,6-dione]	230			96	-31	change in vivo at 20 mg/kg (cholesterol absorption; [3]): -58%
CCCCCC(C)N(Cc1ccc(CC(C)C)cc1)C(Nc1ccc(OC)cc1OC)=C1C(=O)OC(C)(C)OC1=O (stereo not drawn) [Compound 32, 5-[[(2,4-Dimethoxyphenyl)amino][(1-methylhexyl)[[4-(2-methylpropyl)phenyl]methyl]amino]-methylene]-2,2-dimethyl-1,3-dioxane-4,6-dione]	240	4	17	98		change in vivo at 20 mg/kg (cholesterol absorption; [3]): -79%; change in vivo at 60 mg/kg (plasma cholesterol; 96 h, heading: % Decrease in Plasma Cholesterol, four days, 60 mg/kg): -97%
CCCCCC(C)N(Cc1ccc(CC(C)(C)C)cc1)C(Nc1c(C)cc(N(C)C)cc1C)=C1C(=O)OC(C)(C)OC1=O (stereo not drawn) [Compound 33, 5-[[[2,6-Dimethyl-4-(dimethylamino)phenyl]amino][[[4-(2,2-dimethylpropyl)phenyl]methyl](1-methylhexyl)amino]methylene]-2,2-dimethyl-1,3-dioxane-4,6-dione]	380			98		change in vivo at 50 mg/kg (cholesterol absorption; [3]): -86%; change in vivo at 20 mg/kg (plasma cholesterol; [4]): -30%
CCCCCC(C)N(Cc1ccc(CC(C)(C)C)cc1)C(Nc1ccc(N(C)C)cc1)=C1C(=O)OC(C)(C)OC1=O (stereo not drawn) [Compound 37]	690		18	99	-72	change in vivo at 50 mg/kg (cholesterol absorption; [3]): -85%
CCCCCc1ccc(CN(C(Nc2ccc(OC)cc2OC)=C2C(=O)OC(C)(C)OC2=O)C(C)CCCCC)cc1 (stereo not drawn) [Compound 40]	360	2	7	99	-78	change in vivo at 10 mg/kg (cholesterol absorption; [3]): -69%
CCCCCc1ccc(CN(C(Nc2ccc(N(C)C)cc2)=C2C(=O)OC(C)(C)OC2=O)C(C)CCCCC)cc1 (stereo not drawn) [Compound 41, 5-[[[4-(Dimethylamino)phenyl]amino][(1-methylhexyl)[(4-pentylphenyl)methyl]amino]-methylene]-2,2-dimethyl-1,3-dioxane-4,6-dione]	260	3	7	98	-89	
CC(C)CCCC(C)N(Cc1ccc(CC(C)C)cc1)C(Nc1ccc(N(C)C)cc1)=C1C(=O)OC(C)(C)OC1=O (stereo not drawn) [Compound 42]	270	5		98	-63	
CCCCCCOc1ccc(NC(=C2C(=O)OC(C)(C)OC2=O)N(Cc2ccc(CC(C)C)cc2)C(C)CCCCC)cc1 (stereo not drawn) [Compound 43, 5-[[[4-(Hexyloxy)phenyl]amino][(1-methylhexyl)[[4-(2methylpropyl)phenyl]methyl]amino]-methylene]-2,2-dimethyl-1,3-dioxane-4,6,-dione]	410			97	-67	change in vivo at 10 mg/kg (cholesterol absorption; [3]): -52%
CCCCCC(C)N(Cc1ccc(CC(C)C)cc1)C(Nc1ccc(N(C)C)cc1C)=C1C(=O)OC(C)(C)OC1=O (stereo not drawn) [Compound 46]	350	2	8	98		change in vivo at 10 mg/kg (cholesterol absorption; [3]): -82%; change in vivo at 20 mg/kg (plasma cholesterol; [4]): -70%
CCCCCC(C)N(Cc1ccc(CC(C)(C)C)cc1)C(Nc1ccc(N(C)C)cc1C)=C1C(=O)OC(C)(C)OC1=O (stereo not drawn) [Compound 47]	260	3	16	98		change in vivo at 10 mg/kg (cholesterol absorption; [3]): -83%
CCCCCCCN(Cc1ccc(CC(C)(C)C)cc1)C(Nc1ccc(OC)cc1OC)=C1C(=O)OC(C)(C)OC1=O [Compound 48, 5-[[(2,4-Dimethoxyphenyl)amino][[[4-(2,2-dimethylpropyl)phenyl]methyl]heptylamino]-methylene]-2,2-dimethyl-1,3-dioxane-4,6-dione]	2900	11	25	94		change in vivo at 200 mg/kg (cholesterol absorption; [3]): -84%; change in vivo at 100 mg/kg (plasma cholesterol; [4]): -60%
CCCCCC(C)N(Cc1ccc(CC(C)(C)C)cc1)C(Nc1cc(C(C)(C)C)c(O)c(C(C)(C)C)c1)=C1C(=O)OC(C)(C)OC1=O (stereo not drawn) [Compound 75]						antioxidant properties in low density lipoprotein oxidation studies [2]: demonstrated antioxidant properties; antioxidant properties in the lipoperoxide study (lipoperoxide): demonstrated antioxidant properties
CCCCCCCN(Cc1ccc(CC(C)(C)C)cc1)C(Nc1cc(C(C)(C)C)c(O)c(C(C)(C)C)c1)=C1C(=O)OC(C)(C)OC1=O [Compound 76, 5-[[[3,5-Bis(1,1-dimethylethyl)-4,1-hydrophenyl]amino][[[4-(2,2-dimethylpropyl)phenyl]methyl]heptylamino]methylene]-2,2-dimethyl-1,3-dioxane-4,6-dione]	60			96		antioxidant properties in low density lipoprotein oxidation studies [2]: demonstrated antioxidant properties; antioxidant properties in the lipoperoxide study (lipoperoxide): demonstrated antioxidant properties
CCCCCCN(Cc1ccc(CC(C)C)cc1)C(Nc1cc(C(C)(C)C)c(O)c(C(C)(C)C)c1)=C1C(=O)OC(C)(C)OC1=O [Compound 77]				95		antioxidant properties in low density lipoprotein oxidation studies [2]: demonstrated antioxidant properties; antioxidant properties in the lipoperoxide study (lipoperoxide): demonstrated antioxidant properties
CCCCCCN(Cc1ccc(CC(C)(C)C)cc1)C(Nc1cc(C(C)(C)C)c(O)c(C(C)(C)C)c1)=C1C(=O)OC(C)(C)OC1=O [Compound 79, 5-[[[3,5-Bis(1,1-dimethylethyl)-4-hydroxyphenyl]amino][[[4-(2,2-dimethylpropyl)phenyl]methyl]hexylamino]methylene]-2,2-dimethyl-1,3-dioxane-4,6-dione]						antioxidant properties in low density lipoprotein oxidation studies [2]: demonstrated antioxidant properties; antioxidant properties in the lipoperoxide study (lipoperoxide): demonstrated antioxidant properties
